In one data set the test system is BAE cells. Nature of the data set: Tritiated GSAO in cytosol (membrane permeability). Format: in vitro ADME, bovine. The conditions noted are these: 50 μM GSAO, 1 hour. The method, then:
Human T cells (A3.01) or adherent BAE cells were incubated with complete medium containing 50 μM GSAO and ˜100,000 counts per, minute of tritiated GSAO for 1 or 72 hours. Tritiated GSAO was prepared exactly as described for GSAO except that glycine-2-^3H-glutathione (NEN, Boston, Mass.) was used in place of cold glutathione. The cells were washed and lysed by two cycles of freezing and thawing. The cytosolic constituents were collected by differential centrifugation (Ausbel et al., 2000) and the tritiated GSAO was measured. Only 0.5% of the total tritiated GSAO was found in the T cell cytosol and 0.04% in the BAE cytosol after 1 hour. Moreover, only 4.5% of the GSAO penetrated the T cell membrane after 72 hours of culture.

Another data set relates to A3.01 cells. Kind of data set: Cell number and cell viability in the HIVIIIB assay. Format: cell-based, human. The method, then:
FIG. 33. […] Cells were washed and incubated in complete medium at 5% CO2 and 37° C. for up to 10 days. […] B Concentration dependence of GSAO. […] Cells were washed, incubated in complete medium at 5% CO2 and 37° C. for 3 days and the conditioned medium collected and assayed for p24 antigen.
FIG. 34. Inhibition of HIVIIIB infection of A3.01 cells by GSAO.
A3.01 human T cells were exposed to GSAO for 30 minutes and then to HTLVIIIB virus for 2 hours after which the cells were washed and then cultured for up to 10 days. HTLVIIIB and A3.01 cells were obtained from the NIH AIDS Research and Reference Reagent Program, Rockville, Mass. Virus stocks were made and infectivity titer determined using A3.01 cells and the p24 antigen assay (Coulter, Miami, Fla.). A3.01 cells were cultured in RPMI medium containing 10% fetal calf serum. […] Cell numbers and cell viability were determined at the times specified by staining cells with trypan blue and counting using a Neubauer haemacytometer. Cell viability was measured as a percentage of live cells to total cells.

Data set [1] in a line: Stability of the trivalent arsenicals towards oxidation. The conditions noted are these: slowed by removal of O2, lower pH or glycine. Format: physicochemical. From the text:
This oxidation can be slowed in three ways; removal of dissolved O2 from solutions containing the arsenoxides, lowering the pH of these solutions, or by addition of glycine to the solutions. Glycine is routinely used to prevent oxidation of the stock solutions of the trivalent organoarsenicals. Similar to the reaction between 2,3-dimercaptopropanol and R—As(OH)2 in which a 5-membered dithioarsonite (XI) is formed, reaction of glycine with R—As(OH)2 is thought to give a 5-membered cyclic 1,3,2-oxazarsolidin-5-one (XII).

Another data set concerns PBMC. Nature of the data set: Cell number and cell viability in the PBMC HIV assay. The conditions noted are these: 10 μM. The method, then: PBMC's (1×10^6 per mL) were incubated with GSAA or GSAO (10 μM) for 30 minutes at 37° C. and then with primary HIV isolates (HN11, HN68 or HN70 at 50 TCID50 per 10^6 cells) for 2 hours at 37° C. Cells were washed and incubated in complete medium containing GSAA or GSAO (10 μM) at 5% CO2 and 37° C. for up to 7 days. At the indicated times the conditioned medium was collected and assayed for p24 antigen and cell number and cell viability was determined.
The primary HIV isolates, HN11, HN68 and HN70, were provided by Dr. Hassan Naif, Centre for Virus Research, Westmead Millennium Institute, NSW, Australia. […] The blood was diluted 1:2 with PBS, layered onto Ficoll-Hypaque (35 mL blood onto 15 mL Ficoll-Hypaque) in 50 mL Falcon tubes and centrifuged at 400 g for 20 minutes at 20° C. The PBMC's were collected and pelleted at 1200 rpm for 10 minutes to remove platelets, resuspended at 2×10^6 cells per mL in RPMI containing 20% horse serum (Gibco BRL, Gaithersburg, Md.), 10 μg per mL phytohemagglutinin-M (PHA-M, Boehringer Mannheim Biochemica, Mannheim, Germany) and […] interleukin-2 (Sigma, St. Louis, Mo.) and incubated for 2 days at 5% CO2 and 37° C., PBMC (1×10^6 per mL) were incubated with GSAO or GSAA (10 μM) for 30 minutes at 37° C. in serum-free media. Virus was added at 50 TCID50 per 10^6 cells for 2 hours at 37° C.. […]

The next data set relates to HMEC-1 or HUVE cells. Kind of data set: GSAO-B labelling of endothelial cell surface proteins. Format: cell-based, human. The conditions noted are these: 100 μM, 30 minutes. The method, then:
FIG. 16. Identification of endothelial cell surface proteins that contain closely spaced dithiols). A The surface of HMEC-1 or HUVE cells (2×10^6 cells in 0.4 mL) was labelled with GSAO-B (100 μM) for 30 minutes at room temperature in the absence (lanes 1 and 3) or presence of DMP (400 μM) (lane 2). The endothelial cells were lysed and the lysate from both incubations was resolved on 4-15% SDS-PAGE, transferred to PVDF membrane, and blotted with streptavidin peroxidase to detect the GSAO-B label. The results represent labelling of 3×10^4 HMEC-1 (lanes 1 and 2) of HUVE cells (lane 3). The positions of Mr markers are shown at left. B Densitometry profile of the surface labelled proteins (lanes 1 and 3). The apparent Mr's of the individual proteins are indicated.
Human umbilical vein endothelial cells (HUVEC) (Wall et al., 1978) and the human dermal microvascular endothelial cell line, HMEC-1 (Ades et al., 1992), were harvested and cultured as indicated. Endothelial cells (5×10^6) were detached from culture flasks using 5 mM EDTA in PBS at 37° C., washed 3 times with PBS, resuspended in PBS containing 100 μM of GSAO-B in the absence or presence of 400 μM DMP, and incubated for 30 minutes at room temperature. The cells were washed 3 times with 1 mL of PBS, resuspended in 0.2 mL of ice cold 50 mM Tris/HCl, pH 8 buffer containing 0.5 M NaCl, 1% Triton X-100, 10 μM leupeptin, 2 mM PMSF (Sigma Chemical Company, St, Louis, Mo.), 5 mM EDTA and 10 μM aprotinin (Bayer Australia Ltd., Sydney, NSW), and sonicated on ice. On some occasions the cell lysates were incubated with streptavidin-agarose (Sigma, Castle Hill, NSW) beads (25 μL of packed beads in a total volume of 1 mL) for 60 minutes at 4° C. with rotary mixing. Bound proteins were washed 5 times with 50 mM Tris/HCl, pH 8 buffer containing 0.15 M NaCl and 0.05% Triton X-100, resolved on SDS-PAGE, transferred to PVDF membrane, and the GSAO-B-labeled proteins detected by Western blot.

Each structure is given as a SMILES string.

Regarding `NC(CCC(=O)NC(CSCC(=O)Nc1ccc([As]=O)cc1)C(=O)NCC(=O)O)C(=O)O` (centres unmarked) [GSAO, 4-(N-(S-glutathionylacetyl)amino)-phenylarsenoxide], in the data set on BAE cells, the “total tritiated GSAO found in the cytosol” value is given as 0.04%. In the data set with A3.01 cells (10 μM in the culture medium), the “effect on cell proliferation” value is “small inhibitory effect on cell proliferation” and the “effect on cell viability” value was “no effect on cell viability”. For the same compound, the “effect on cell proliferation or cell viability” value with A3.01 cells (up to 100 μM, pre-incubation only) was “no effect on cell proliferation or cell viability”. For the same compound, in data set [1], the “stability of solutions towards oxidation” value is listed as “deactivated over time by oxidation”. Moreover, the “proliferation of PBMC's” value with PBMC is given as “inhibited proliferation”. Moreover, the “viability of PBMC's” value in the data set on PBMC (7 days) is reported as “no effect of cell viability”. The “proteins on the endothelial cell surface that bind the compound” value in the data set with HMEC-1 or HUVE cells is recorded as “ten distinct proteins”.

For the origin of these results see patent US7498406B2, “Substantially cell membrane impermeable compound and use thereof” (priority 1999, dated 2009).
